Entries after “also recorded” stand apart in the source; their conditions may differ. Where two headings read alike, the source gives them in different places.
Key:
PBMC = experiment: P.69 Pertactin specific human proliferation assay (in vitro restimulation of PBMC with synthetic peptides); format: cell-based; details: PBMC from a panel of healthy adult donors, synthetic standards
Experimental: (§1) For P.69 Pertactin specific human proliferation assays, 10^5 PBMC were incubated in complete medium at 150 µl/well in the absence or presence of the relevant peptide(s), at 1 or 10 μM at 37° C. in a 5% CO2 atmosphere. For PorA specific human proliferation assays, 10^5 PBMC or 2×10^4 MB71.5 T cells were incubated in complete medium at 150 μl/well in the absence or presence of the relevant peptide(s), peptide pool or PorAs rP1.7-2.4, P1.5-2.10, P1.7.16, P1.19.15, or P1.22.14 at the indicated concentrations at 37° C. in a 5% CO2 atmosphere. At day 4, 100-μl volumes were removed for the cytokine determinations. Then 0.5 μCi (18.5 kBq) ^3H-thymidine (Amersham, USA) was added to the culture 18 hours before harvesting the cells. Determination of CPM and calculation of the results were performed as for the proliferation assay of immune splenocytes. Results are expressed as SI±SD from at least triplicate wells. The region 4 specific T cell line MB71.5 was generated by repetitive in vitro restimulation of MB71 PBMC with 0.5 μg/ml rP1.5-2.1 in complete medium.
We investigated the immunogenicity of the two Bordetella pertussis P.69 Pertactin epitope regions in humans by in vitro restimulation of PBMC from a panel of healthy adult donors with synthetic standards representing the epitopes.

HLA-A2 [1] = biological target: T1, HLA-A2 (Homo sapiens, UniProt P04439, D140Y/D185E/D98H/E176V/E277Q/G131W/G231S/I119V/I121R/I166T/I218V/L300P/L318F/N151K/N90K/P208A/P217A/Q86G/Q94H/R138H/R169H/T345S); format: cell-based; details: MV-infected WH cells, HLA-A2 ligands, standard LCMS
[2] = tested on: Balb/c and C57black/6 mice; experiment: Murine immunization with PorA and splenocyte proliferation assay; format: in vivo, mouse; details: splenocytes from Balb/c mice immunized with P1.5-1, 2-2; data not shown
MB71.5 T cells = experiment: PorA specific human proliferation assay with MB71.5 T cells; format: cell-based; details: FIG. 17A; region 4 18-mer peptides
Experimental: as §1

HLA-A2 [3] = biological target: T1, HLA-A2; format: cell-based; details: human MDDC, HLA-A2 ligandome; from intensity ratio of native and singly labelled epitope
[4] = approach A (subtractive analysis)

Question: How did the “immune recognition observed in donors” value (PBMC) turn out when ASTLWYAESNALSKRLG was run?
Answer: The value was “at least 2 donors”.

Question: How did the “Abundance (copies/cell)” value (HLA-A2 [1]; approach B (isotope labelling)) turn out when GLASFILTI [SEQ ID NO: 6] was run?
Answer: Its value is 150 copies/cell.

Question: How did the “Abundance (copies/cell)” value (HLA-A2 [1]; [4]) turn out when KLWESPQEI [SEQ ID NO: 1] was run?
Answer: Its value is >100,000 copies/cell.

Question: And the “Abundance (copies/cell)” value (HLA-A2 [1]; approach A (subtractive analysis), listed as MV-C84-92)?
Answer: Its value is > 100,000 copies/cell.

Question: How did the “Abundance (copies/cell)” value (HLA-A2 [1]; approach B (isotope labelling)) turn out when KLWESPQEI [SEQ ID NO: 4] was run?
Answer: Its value is 85 copies/cell.

Question: For LMIDRPYVL [SEQ ID NO: 3], which “Abundance (copies/cell)” value (HLA-A2 [1]; [4]) is on record?
Answer: The value was 150 copies/cell.

Question: For “PEFSGFSGSVQFVPAQNS [S011-24, synthetic 18-mer, P1.5-2.10 region 4 variant]”, which “Response of splenocytes to region 4 peptides” value [2] is on record?
Answer: Its value is “responded”.

Question: And the “Proliferation of MB71.5 T cells with autologous PBMC pulsed with synthetic peptides” value (MB71.5 T cells)?
Answer: Its value is “proliferated; also recorded: recognizing”.

Question: How did the “Abundance (copies/cell)” value (HLA-A2 [1]; [4]) turn out when “QLPEATFMV (listed as Measles virus) [SEQ ID NO: 2]” was run?
Answer: The value was 1,500 copies/cell.

Question: How did the “Response of splenocytes to region 4 peptides” value [2] turn out when “SGSVQFVPAQNSKSAYTP [S011-25, synthetic 18-mer, P1.5-2.10 region 4 variant]” was run?
Answer: The value was “responded”.

Question: What about the “Proliferation of MB71.5 T cells with autologous PBMC pulsed with synthetic peptides” value (MB71.5 T cells) of the same sequence?
Answer: Its value is “proliferated; also recorded: recognizing”.

Question: Which “degree of upregulation due to the influenza virus infection” value (HLA-A2 [3]) does the source give for “VVSEVDIAKAD (listed as Homo sapiens) [SEQ ID NO: 52]” here?
Answer: Its value is 16.

Source: patent publication US20110186731A1, “LCMS TECHNOLOGY AND ITS USES” (priority 2008, published 2011)
